Drawing on PubChem BioAssay AID1259411 (Chemical Carcinogenesis Research Information System (CCRIS), 2018), this text covers carcinogen call for 5 compounds.

This data set relates to rodent carcinogenicity bioassays, tumor incidence. Nature of the data set: CCRIS carcinogenicity studies. The essentials:
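NCI-built, expert-reviewed records of carcinogenicity and related test outcomes (mutagenicity, tumor promotion/inhibition) compiled from published and report sources, historical span 1985-2011, not updated.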

The structures appear in SMILES notation. Calls of active or inactive are those of the source. The rule behind the calls is not given here.

For `O=S(=O)([O-])[O-].[Cd+2]`, the carcinogen call by setting is: (Species: HAMSTER, Strain/Sex: SYRIAN/FEMALE, Route: INHALATION, Dose: 0, 30 UG/M3 19 HR/D 5 D/WK FOR 65 WK FOR A TOTAL CADMIUM DOSE OF 0, 180 MG/M3 (STUDY DURATION: 77 WK), Dose: 0, 30 UG/M3 19 HR/D 5 D/WK FOR 65 WK FOR A TOTAL CADMIUM DOSE OF 0, 180 MG/M3 (STUDY DURATION: 77 WK)) “inactive; negative”; (Species: HAMSTER, Strain/Sex: SYRIAN/MALE, Route: INHALATION, Dose: 0, 30 UG/M3 19 HR/D 5 D/WK FOR 65 WK FOR A TOTAL CADMIUM DOSE OF 0, 180 MG/M3 (STUDY DURATION: 113 WK), Dose: 0, 30 UG/M3 19 HR/D 5 D/WK FOR 65 WK FOR A TOTAL CADMIUM DOSE OF 0, 180 MG/M3 (STUDY DURATION: 113 WK)) “inactive; negative”; (Species: RAT, Strain/Sex: ALBINO/MALE, Route: SUBCUTANEOUS, Dose: 0.5 MG IN WATER 1/WK FOR 10 WK, Tumor Site: Type of Lesion: INJECTION SITE: SARCOMA, TESTES: INTERSTITIAL CELL TUMOR) “active; positive”; (Species: RAT, Strain/Sex: CB/MALE, Route: SUBCUTANEOUS, Dose: 0.5 MG, 1/WK FOR 10 WK, Tumor Site: Type of Lesion: INJECTION SITE: SARCOMA, TESTES: INTERSTITIAL CELL TUMOR) “active; positive”; (Species: RAT, Strain/Sex: WISTAR/FEMALE, Route: INHALATION, Dose: 0, 90 UG/M3 22 HR/D 7 D WK FOR 18 MO (STUDY DURATION: 18 MO), Tumor Site: Type of Lesion: LUNG: ALVEOLAR/BRONCHIOLAR ADENOMA, ALVEOLAR/BRONCHIOLAR ADENOCARCINOMA, SQUAMOUS CELL CARCINOMA) “active; positive”; (Species: RAT, Strain/Sex: WISTAR/FEMALE, Route: INHALATION, Dose: 0, 90 UG/M3 22 HR/D 7 D/WK FOR 18 MO (STUDY DURATION: 29 MO), Tumor Site: Type of Lesion: LUNG: ALVEOLAR/BRONCHIOLAR ADENOMA, ADENOCARCINOMA, SQUAMOUS CELL CARCINOMA) “active; positive”. Also, the carcinogen call is “active; positive” (Species: RAT, Strain/Sex: WISTAR/FEMALE, Route: INHALATION, Dose: 0, 90 UG/M3 22 HR/D 7 D/WK FOR 18 MO (STUDY DURATION: 29 MO), Tumor Site: Type of Lesion: LUNG: TUMOR); “active; positive” (Species: RAT, Strain/Sex: WISTAR/FEMALE, Route: INHALATION, Dose: 0, 90 UG/M3 AEROSOL 22 HR/D 7 D/WK FOR 18 MO (STUDY DURATION: 29 MO), Tumor Site: Type of Lesion: LUNG: ALVEOLAR/BRONCHIOLAR ADENOMA, ADENOCARCINOMA, SQUAMOUS CELL CARCINOMA); “active; positive” (Species: RAT, Strain/Sex: WISTAR/MALE, Route: INHALATION, Dose: 0, 90 UG/M3 22 HR/D 7 D/WK FOR 14 MO (STUDY DURATION: 31 MO), Tumor Site: Type of Lesion: LUNG: ALVEOLAR/BRONCHIOLAR ADENOMA, ADENOCARCINOMA); “active; positive” (Species: RAT, Strain/Sex: WISTAR/MALE, Route: INHALATION, Dose: 0, 90 UG/M3 22 HR/D 7 D/WK FOR 14 MO (STUDY DURATION: 31 MO), Tumor Site: Type of Lesion: LUNG: TUMOR); “active; positive” (Species: RAT, Strain/Sex: WISTAR/MALE, Route: INHALATION, Dose: 0, 90 UG/M3 22 HR/D 7 D/WK FOR 135 MO (STUDY DURATION: 13.5 MO), Tumor Site: Type of Lesion: LUNG: ALVEOLAR/BRONCHIOLAR ADENOMA, ALVEOLAR/BRONCHIOLAR ADENOCARCINOMA, SQUAMOUS CELL CARCINOMA); “active; positive” (Species: RAT, Strain/Sex: WISTAR/MALE, Route: INHALATION, Dose: 0, 90 UG/M3 AEROSOL 22 HR/D 7 D/WK FOR 14 MO (STUDY DURATION: 31 MO), Tumor Site: Type of Lesion: LUNG: ALVEOLAR/BRONCHIOLAR ADENOMA, ADENOCARCINOMA).
For the compound `ClC/C=C/CCl`, the carcinogen call was “active; positive” (Species: RAT, Strain/Sex: CD/MALE, Route: INHALATION, Dose: 0, 0.1, 0.3, 1.0 PPM 6 HR/D 5 D/WK FOR 86 WK (STUDY DURATION: 86 WK), Dose: 0, 0.1, 0.3, 1.0 PPM 6 HR/D 5 D/WK FOR 86 WK (STUDY DURATION: 86 WK), Tumor Site: Type of Lesion: NASAL CAVITY: ADENOMA, ADENOCARCINOMA, CARCINOSARCOMA, MIXED CARCINOMA); “active; positive” (Species: Rat, Strain/Sex: CD BR/Female (140/group), Route: Inhalation, Dose: 0, 0.5 6 hr/d for 2 yr, 5 ppm 6 hr/d lowered to 2.5 ppm after 7 mo and continued an additional 5 mo with a 1-yr maintena, Dose: 0, 0.5 6 hr/d for 2 yr, 5 ppm 6 hr/d lowered to 2.5 ppm after 7 mo and continued an additional 5 mo with a 1-yr maintena, Tumor Site: Type of Lesion: Nasal Passages: Benign (0 (0%), 23 (18%), 5 (3.9%)) and malignant tumors (0 (0%), 2 (1.6%), 113 (88.3%))); “active; positive” (Species: Rat, Strain/Sex: CD BR/Male (140/group), Route: Inhalation, Dose: 0, 0.5 6 hr/d for 2 yr, 5 ppm 6 hr/d lowered to 2.5 ppm after 7 mo and continued an additional 5 mo with a 1-yr maintena, Dose: 0, 0.5 6 hr/d for 2 yr, 5 ppm 6 hr/d lowered to 2.5 ppm after 7 mo and continued an additional 5 mo with a 1-yr maintena, Tumor Site: Type of Lesion: Nasal Passages: Benign (0 (0%), 33 (25.4%), 2 (1.6%)) and malignant tumors (0 (0%), 11 (8.5%), 114 (88.4%))).
In the case of `NCC1(CC(=O)O)CCCCC1`, the carcinogen call is “inactive; negative” (Species: RAT, Strain/Sex: WISTAR/FEMALE, Route: ORAL, Dose: 0, 250, 1000, 2000 MG/KG IN DIET FOR 104 WK (STUDY DURATION: 104 WK), Dose: 0, 250, 1000, 2000 MG/KG IN DIET FOR 104 WK (STUDY DURATION: 104 WK)) and “active; positive” (Species: RAT, Strain/Sex: WISTAR/MALE, Route: ORAL, Dose: 0, 250, 1000, 2000 MG/KG IN DIET FOR 104 WK (STUDY DURATION: 104 WK), Dose: 0, 250, 1000, 2000 MG/KG IN DIET FOR 104 WK (STUDY DURATION: 104 WK), Tumor Site: Type of Lesion: PANCREAS: ACINAR CELL ADENOMA, ACINAR CELL CARCINOMA).
Take `Clc1cnc(Oc2ccc(Oc3ncc(Cl)cc3Cl)cc2)c(Cl)c1`: the carcinogen call reads like this: (Species: MOUSE, Strain/Sex: C57BL/MALE, Route: INTRAGASTRIC, Dose: 0, 3 MG/KG BW IN CORN OIL 1/2 WK FOR 24 WK (STUDY DURATION: 55 WK), Tumor Site: Type of Lesion: LIVER: HEPATOCELLULAR ADENOMA OR CARCINOMA) “active; positive”; (Species: MOUSE, Strain/Sex: C57BL/MALE, Route: INTRAPERITONEAL, Dose: 0, 3 MG/KG BW IN CORN OIL 1/2 WK FOR 24 WK (STUDY DURATION: 55 WK), Tumor Site: Type of Lesion: LIVER: HEPATOCELLULAR ADENOMA OR CARCINOMA) “active; positive”; (Species: MOUSE, Strain/Sex: DBA/MALE, Route: INTRAGASTRIC, Dose: 0, 3 MG/KG BW IN CORN OIL 1/2 WK FOR 24 WK (STUDY DURATION: 55 WK)) “active; positive”; (Species: MOUSE, Strain/Sex: DBA/MALE, Route: INTRAPERITONEAL, Dose: 0, 3 MG/KG BW IN CORN OIL 1/2 WK FOR 24 WK (STUDY DURATION: 55 WK), Tumor Site: Type of Lesion: LIVER: HEPATOCELLULAR ADENOMA OR CARCINOMA) “active; positive”; (Species: RAT, Strain/Sex: F344/MALE, Route: INTRAGASTRIC, Dose: 0, 30 MG/KG IN CORN OIL 1/2 WK FOR 71 WK (STUDY DURATION: 73 WK)) “inactive; negative”; (Species: RAT, Strain/Sex: F344/MALE, Route: INTRAPERITONEAL, Dose: 0, 30 MG/KG IN CORN OIL 1/2 WK FOR 71 WK (STUDY DURATION: 73 WK)) “inactive; negative”.
For `Cc1cc(C)c(S(=O)(=O)O)cc1N=Nc1cc(S(=O)(=O)O)c2ccccc2c1O`, the carcinogen call reads like this: (Species: MOUSE, Strain/Sex: SWISS-WEBSTER/FEMALE, Route: DERMAL, Dose: 0, 1% IN 0.1 ML DISTILLED WATER 1/WK FOR 19.5 MO (STUDY DURATION: 19.5 MO)) “inactive; negative”; (Species: MOUSE, Strain/Sex: SWISS-WEBSTER/MALE, Route: DERMAL, Dose: 0, 1% IN 0.1 ML DISTILLED WATER 1/WK FOR 19.5 MO (STUDY DURATION: 19.5 MO)) “inactive; negative”.
